Consider eight compounds from patent US20210236575A1 (priority 2018, published 2021).

The test system of one experiment is NF-κB. Briefly: NF-κB luciferase assay, TNFα-induced, NIH-3T3-KBF-Luc cells.
Experiment [1] has as its target T1, CB1R (Homo sapiens, UniProt P21554).
T1 construct: expressed in transfected cells; host or cells: HEK293T (HEK293T-CB1), transiently co-transfected with CRE-luc reporter
Briefly: cell-based.

Another experiment addresses T2, COX-2 (Homo sapiens, UniProt P35354).
T2 sequence (P35354 18-604): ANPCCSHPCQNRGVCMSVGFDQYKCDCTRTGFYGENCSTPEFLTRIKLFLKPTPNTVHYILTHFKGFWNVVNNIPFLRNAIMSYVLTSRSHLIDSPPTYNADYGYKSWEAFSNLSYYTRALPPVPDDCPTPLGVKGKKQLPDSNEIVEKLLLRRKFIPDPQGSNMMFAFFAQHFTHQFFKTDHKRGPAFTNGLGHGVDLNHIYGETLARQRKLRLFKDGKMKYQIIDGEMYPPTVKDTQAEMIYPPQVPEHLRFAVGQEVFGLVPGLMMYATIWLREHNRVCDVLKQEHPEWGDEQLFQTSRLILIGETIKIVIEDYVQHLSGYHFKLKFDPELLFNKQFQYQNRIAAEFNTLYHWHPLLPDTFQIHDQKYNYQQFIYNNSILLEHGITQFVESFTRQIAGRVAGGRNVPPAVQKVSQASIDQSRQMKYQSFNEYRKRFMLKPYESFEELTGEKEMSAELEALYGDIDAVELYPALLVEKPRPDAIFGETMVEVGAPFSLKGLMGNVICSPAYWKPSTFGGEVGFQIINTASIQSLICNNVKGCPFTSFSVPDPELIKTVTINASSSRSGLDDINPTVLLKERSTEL
The note with it: Takeda et al 2008; cited from earlier work.

The target in experiment [2] is T1, CB1R. It counts as cell-based.
The next experiment concerns the target CB2R (Homo sapiens, UniProt P34972). Briefly: CB2R agonism assay, HEK293T-CB2 cells with CRE-Luc reporter, forskolin-stimulated. The settings on record: for Conclusions: Is CB2R agonist effect observed? / Experiment 1 % of activity / Experiment 2 % of activity / Experiment 3 % of activity: THC 10 μM or THCA 10 μM alone; for Experiment 1 % of activity / Experiment 2 % of activity / Experiment 3 % of activity: forskolin = 100%.

Where [3] appears, read: read-out: Experiment 1 % of activity.
[4] abbreviates: read-out: Experiment 2 % of activity.
Setting [5] is: read-out: Experiment 3 % of activity.
[6] abbreviates: THC 10 μM or CBD 10 μM alone, TNFα = 100%.
[7] abbreviates: THCA 10 μM or THC 10 μM alone, CP55940 = 100%.
Setting [8] is: TNFα 30 ng/mL (control without inhibitor).

pEC50, pIC50: −log10 of the molar value. Like-named read-outs stand apart in the source and are kept apart here.

Sequence of CB2R (P34972 whole entry): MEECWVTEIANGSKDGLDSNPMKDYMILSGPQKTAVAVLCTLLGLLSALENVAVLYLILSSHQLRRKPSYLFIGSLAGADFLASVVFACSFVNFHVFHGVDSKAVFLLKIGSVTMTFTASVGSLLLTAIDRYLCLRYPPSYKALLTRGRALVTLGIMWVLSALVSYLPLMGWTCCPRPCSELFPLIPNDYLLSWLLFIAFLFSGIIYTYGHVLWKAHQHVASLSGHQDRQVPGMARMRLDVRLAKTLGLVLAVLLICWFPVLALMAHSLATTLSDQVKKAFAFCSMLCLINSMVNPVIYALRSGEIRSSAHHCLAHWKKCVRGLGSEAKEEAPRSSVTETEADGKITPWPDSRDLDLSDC
T1 sequence (P21554 whole entry): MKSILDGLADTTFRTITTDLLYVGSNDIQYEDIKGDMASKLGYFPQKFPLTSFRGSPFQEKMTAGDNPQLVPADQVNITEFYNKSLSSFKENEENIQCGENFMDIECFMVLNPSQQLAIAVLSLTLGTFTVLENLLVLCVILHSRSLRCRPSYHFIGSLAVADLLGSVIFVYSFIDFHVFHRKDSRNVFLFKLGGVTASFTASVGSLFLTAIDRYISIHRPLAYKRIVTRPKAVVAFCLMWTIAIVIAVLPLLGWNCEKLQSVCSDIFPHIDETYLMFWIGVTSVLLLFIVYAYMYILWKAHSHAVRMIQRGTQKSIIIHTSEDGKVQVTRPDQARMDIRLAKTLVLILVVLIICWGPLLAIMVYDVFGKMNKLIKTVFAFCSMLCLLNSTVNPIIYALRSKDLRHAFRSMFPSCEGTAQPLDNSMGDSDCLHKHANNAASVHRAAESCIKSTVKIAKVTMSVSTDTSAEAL

Regarding `C=C(C)[C@@H]1CCC(C)=C[C@H]1c1c(O)cc(CCCCC)cc1O` [CBD, cannabidiol], the “Conclusions: Is NF-κB inhibitor effect observed?” value with NF-κB (THC 10 μM or CBD 10 μM alone) was “Negative”. In addition, the activity at 10 µM in the experiment on NF-κB (setting [3]) worked out at 136%; with NF-κB (setting [4]) it was 86.4%; in the experiment with NF-κB (setting [5]) it was 106%. The “Conclusions: Is CB1R antagonist effect observed?” value on CB1R [1] (CBD 1 μM alone) was “Negative”. Moreover, the activity at 1 µM stood at 61.3% on CB1R [1] (CBD 1 μM alone, CP55940 = 100%, read-out: Experiment 1 % of activity); 55.9% at CB1R [1] (CBD 1 μM alone, CP55940 = 100%, read-out: Experiment 2 % of activity); 57.4% on CB1R [1] (CBD 1 μM alone, CP55940 = 100%, read-out: Experiment 3 % of activity).
With `C=C(C)[C@@H]1CCC(C)=C[C@H]1c1c(O)cc(CCCCC)c(C(=O)O)c1O` [CBDA, cannabidiolic acid], the “selectivity for COX-2 than COX-1 inhibition” value at COX-2 is on record as 9 fold.
Regarding `CCCCCCC(C)(C)c1ccc([C@@H]2C[C@H](O)CC[C@H]2CCCO)c(O)c1` [CP], at CB1R [2], the “Conclusions: Is CB1R agonist effect observed?” value is recorded as “+ (key: +: positive result (CB1R activity ≥2.5-fold increase) are considered agonists of CB1R activity)”, the “Experiment 1 Fold change” value is on record as 2.5 fold, the “Experiment 2 Fold change” value is listed as 2.5 fold and the “Experiment 3 Fold change” value is given as 2.5 fold. For the same compound, the “Conclusions: Is CB1R antagonist effect observed?” value on CB1R [1] is given as “Negative”. Moreover, the activity at 5 µM on CB1R [1] (setting [3]) was found to be 100%. Further, at CB1R [1] (setting [4]), the activity at 5 µM worked out at 100%. The activity at 5 µM on CB1R [1] (setting [5]) was determined as 100%.
In general, pEC50 refers to the negative decadic logarithm of the EC50, by convention in mol/L. The low end stands for a high EC50, the high end for a low EC50. Usually pIC50 stands for −log10 of the IC50, conventionally taken in molar units. For the compound `COc1cc(/C=C/C(=O)CC(=O)/C=C/c2ccc(O)c(OC)c2)ccc1O` [Curcumin, diferuloylmethane (curcumin)], the pEC50 on CB2R is 2.22. Moreover, the “Conclusions: Is NF-κB inhibitor effect observed?” value with NF-κB (Curcumin 5 μM, alone or + THC 10 μM or + CBD 10 μM) is “+ (positive result (activity ≤50%) are considered inhibitory of NF-κB activity)”; in the experiment with NF-κB (Curcumin 10 μM, alone or + THC 10 μM or + CBD 10 μM) it was “+ (positive result (activity ≤50%) are considered inhibitory of NF-κB activity)”; in the experiment with NF-κB (Curcumin 15 μM, alone or + THC 10 μM or + CBD 10 μM) it was “+ (positive result (activity ≤50%) are considered inhibitory of NF-κB activity)”. The negative-log IC50 (pIC50) in the experiment on NF-κB (read-out: anti-NF-κB IC50) was 5.41.
On to `C=C[C@@]1(C)CC(=O)[C@]2(O)[C@@]3(C)[C@@H](O)CCC(C)(C)[C@@H]3[C@H](O)[C@H](OC(C)=O)[C@@]2(C)O1` [Forskolin], for which the activity at 1 µM on CB2R (setting [3]), at CB2R (setting [4]) and on CB2R (setting [5]) was 100% throughout.
For the compound `CCCCCc1cc(O)c2c(c1)OC(C)(C)[C@@H]1CCC(C)=C[C@@H]21` [THC, tetrahydrocannabinol], at CB2R, the “Conclusions: Is CB2R agonist effect observed?” value is on record as “Negative”, the “Experiment 1 % of activity” value came out at 54.7%, the “Experiment 2 % of activity” value came out at 73.7% and the “Experiment 3 % of activity” value was 60.3%. Also, in the experiment with NF-κB (THC 10 μM or CBD 10 μM alone), the “Conclusions: Is NF-κB inhibitor effect observed?” value is “Negative”. Moreover, in the experiment with NF-κB (setting [6]), the “Experiment 1 % of activity” value is listed as 122.2%, the “Experiment 2 % of activity” value stood at 84.9% and the “Experiment 3 % of activity” value is recorded as 88.8%.
On to `CCCCCc1cc2c(c(O)c1C(=O)O)[C@@H]1C=C(C)CC[C@H]1C(C)(C)O2` [THCA, tetrahydrocannabinolic acid], for which, at CB1R [2] (THCA 10 μM or THC 10 μM alone), the “Conclusions: Is CB1R agonist effect observed?” value is reported as “Negative”, the “Experiment 1 Fold change” value came out at 0.9 fold, the “Experiment 2 Fold change” value came out at 0.8 fold and the “Experiment 3 Fold change” value was 1.1 fold. For the same compound, on CB2R, the “Conclusions: Is CB2R agonist effect observed?” value is “Negative”, the “Experiment 1 % of activity” value turned out to be 115.6%, the “Experiment 2 % of activity” value came to 105.6% and the “Experiment 3 % of activity” value is reported as 124.6%. The “Conclusions: Is CB1R antagonist effect observed?” value on CB1R [1] (THCA 10 μM or THC 10 μM alone) is on record as “Negative”. Besides, at CB1R [1] (setting [7]), the “Experiment 1 % of activity” value is recorded as 116.7%, the “Experiment 2 % of activity” value came to 116.0% and the “Experiment 3 % of activity” value is reported as 56.4%.
As to TNFα, in the experiment on NF-κB (setting [8]), the “Conclusions: Is NF-κB inhibitor effect observed?” value is listed as “Negative”, the “Experiment 1 % of activity” value is 100.0%, the “Experiment 2 % of activity” value was 100.0% and the “Experiment 3 % of activity” value came out at 100.0%.
